Measured values from patent US7268160B2, “Remedies” (Takara Bio, Inc., priority 2000, dated 2007).

Experiments:
[1] = test system: NGF production in the L-M cells; test: Enhancement for NGF production by flavonols, Example 16 (24 hours culture); type: cell-based, rat; conditions: for Enhancement of NGF production (in words): L-M cells; for Enhancement Ratio (%): negative control (distilled water) = 100%
Method: L-M cells (ATCC CCL-1.2) from […] fibroblasts were suspended in an M199 medium (manufactured by ICN) containing 0.5% bactopeptone (manufactured by Gibco BRL) so as to have a concentration of 1.5×10^5 cells/ml. The suspension was put in a 96-well plate in an amount of 0.1 ml each well, and the cells were aseptically cultured. After culturing the cells for 3 days, the medium was removed therefrom, and exchanged with an M199 medium containing 0.5% bovine serum albumin (manufactured by Sigma).
As the negative control, that with addition of distilled water was used. After the termination of the culture, the NGF concentration in the culture medium was assayed by an enzyme immunoassay method (NGF Emax Immuno Assay System, manufactured by Promega). The degree of the enhancement for NGF production at each added amount was expressed in percentage as the enhancement ratio (%) on the basis of the NGF concentration in the cell culture medium at each added amount when the NGF concentration in the cell culture medium of the negative control was defined as 100%. The experiment was carried out twice, and an average value was taken.
The enhancing activity for NGF production of myricitrin (manufactured by Funakoshi) was assayed in the same manner as in item (1) of Example 16. Myricitrin was added so as to have a final concentration of 0, 31.3, 62.5, 125 or 250 μM.
The enhancing activity for NGF production of quercitrin (manufactured by Sigma) was assayed in the same manner as in item (1) of Example 16. Quercitrin was added so as to have a final concentration of 0, 31.3, 62.5, 125 or 250 μM.

[2] = test system: SD rats; test: Toxicity test in rats (Test Example 1); type: in vivo; conditions: male SD rats
Method: Male SD rats were purchased from Nippon SLC, and used for an experiment from 6 week-old after preliminary rearing. A solution prepared by dissolving butein [compound (13)] in physiological saline was administered intraperitoneally, or a suspension prepared by suspending butein in 0.5% carboxymethylcellulose was given by forced oral administration, to the rats. The concentration of administration was 300 mg (N=3), 10 mg (N=3), 1 mg (N=3) or 0.1 mg (N=3) per 1 kg body weight in the case of intraperitoneal administration, and 1 g (N=2) and 0.1 g (N=3) per 1 kg body weight in the case of forced oral administration. In the control group, each of the solvents alone was administered in the same manner.

[3] = test system: NGF production in the L-M cells; test: Enhancing activity for NGF production, Reference Example 1 method (24 hours culture, NGF enzyme immunoassay of culture medium); type: cell-based, murine; conditions: for Enhancement Ratio (%): negative control = 100%
Method: L-M cells (ATCC CCL-1.2) from murine fibroblasts were suspended in an M199 medium (manufactured by ICN) containing 0.5% bactopeptone (manufactured by Gibco BRL) so as to have a concentration of 1.5×10^5 cells/mi. The suspension was put in a 96-well plate in an amount of 0.1 ml each well, and the cells were aseptically cultured. After culturing the cells for 3 days, the medium was removed therefrom, and exchanged with an M199 medium containing 0.5% bovine serum albumin (manufactured by Sigma). Caffeic acid (manufactured by Sigma, dimethyl suif oxide (DMSO) solution), a substance known to have enhancing activity for NGF production, was added to each well containing the cells, so as to have a final concentration of 0, 50, 100 or 200 μM, and the cells were cultured for 24 hours. One having a caffeic acid concentration of 0 μM was used as a negative control. In addition, the final concentration of DM50 in each well was adjusted to 0.1%. After the termination of the culture, the NGF concentration in the culture medium was determined by an enzyme immunoassay method (NGF Emax Immuno Assay System, manufactured by Promega). The degree of the enhancement for NGF production of caffeic acid at each added amount was expressed in percentage as the enhancement ratio (%) on the basis of the NGF concentration in the cell culture medium at each added amount, when the NGF concentration in the cell culture medium of the negative control was defined as 100%. The experiment was carried out twice, and an average value was taken. It was shown that the enhancing activity for NGF production of caffeic acid could be assayed by this method.
The enhancing activity for NGF production of the compound (13) (manufactured by Funakoshi) was assayed in the same manner as in Reference Example 1. The compound (13) was added so as to have a final concentration of 0, 0.5, 1, 2, 5, 10, 20 or 50 μM.
The enhancing activity for NGF production of a compound (14) (manufactured by Sigma) was assayed in the same manner as in Reference Example 1. The compound (14) was added so as to have a final concentration of 0, 50, 100 or 200 μM.
The enhancing activity for NGF production of a compound (15) (manufactured by Sigma) was assayed in the same manner as in Reference Example 1. The compound (15) was added so as to have a final concentration of 0, 12.5, 25 or 50 μM.
The enhancing activity for NGF production of a compound (16) (manufactured by Wako Pure Chemical Industries) was assayed in the same manner as in Reference Example 1. The compound (16) was added so as to have a final concentration of 0, 25, 50 or 100 μM.

[4] = test system: NGF; test: Content of NGF in sciatic nerves of streptozotocin-induced diabetic rats; type: in vivo, SD rats; conditions: 4 weeks
Method: Male SD rats were purchased from Nippon SLC, and used for an experiment at 5 weeks old after preliminary rearing. Streptozotocin (manufactured by Nakalai Tesque) was administered intraperitoneally to the rats at a dose of 100 mg/kg body weight to induce diabetes. The rats were divided into groups according to the blood sugar level after 5 days from the administration of streptozotocin. Next, a solution prepared by dissolving butein [compound (13)] in physiological saline was administered intraperitoneally to the rats at a dose of 100 μg per 1 kg body weight. In the control group, physiological saline alone was administered in the same manner. The rats were administered for consecutive days, and sciatic nerves (about 35 mg) were enucleated after 4 weeks from the beginning of administration. The enucleated sciatic nerves were homogenized, and NGF was extracted. The content of NGF was assayed by an enzyme immunoassay method (NGF Emax Immuno Assay System, manufactured by Promega).
The numerical figures in the table are expressed by an average value±standard error of 6 cases. In addition, the asterisk * means that the group has a significant difference at a significance level of 5% or less as compared to the control group according to Student-t test. […] As described above, it was clarified that the NGF production was enhanced by the administration of butein to a living body.

[5] = test system: CDF1 mice; test: Toxicity on oral administration to mice; type: in vivo; conditions: oral administration to a mouse once at 1000 mg/kg
From the text: Each of the compounds used in Example 16 was orally administered to mice in the same manner as in Test Example 1 described above.

Structure (SMILES) | Enhancement of NGF production (in words) [1] | Enhancement Ratio (%) ([1]; added amount 31.3 μM) | Enhancement Ratio (%) ([1]; added amount 62.5 μM) | Enhancement Ratio (%) ([1]; added amount 125 μM) | Enhancement Ratio (%) ([1]; added amount 250 μM) | also measured
C[C@@H]1O[C@@H](Oc2c(-c3ccc(O)c(O)c3)oc3cc(O)cc(O)c3c2=O)[C@H](O)[C@H](O)[C@H]1O [Quercitrin, quercitrin] | enhanced NGF production in the L-M cells in a concentration-dependent manner | 122% | 140% | 193% | 207% | –
O=c1c(O)c(-c2cc(O)c(O)c(O)c2)oc2cc(O)cc(O)c12 [Myricetin, myricetin] | enhanced NGF production in the L-M cells in a concentration-dependent manner | – | – | – | – | –
C[C@H]1O[C@@H](Oc2c(-c3cc(O)c(O)c(O)c3)oc3cc(O)cc(O)c3c2=O)[C@@H](O)[C@@H](O)[C@@H]1O [Myricitrin, myricitrin] | enhanced NGF production in the L-M cells in a concentration-dependent manner | 105% | 159% | 294% | 304% | –
O=c1c(O)c(-c2ccc(O)c(O)c2)oc2cc(O)cc(O)c12 [Quercetin, quercetin] | enhanced NGF production in the L-M cells in a concentration-dependent manner | 122% | 108% | – | 219% | –
O=C(/C=C/c1ccc(O)c(O)c1)c1ccc(O)cc1O [Compound (13), Butein] | – | – | – | – | – | Toxicity findings (death, general conditions, body weight, dissection) ([2]; forced oral administration, 1 g and 0.1 g per 1 kg body weight): no cases of death, changes in the general conditions, suppression of the increase in the body weight or abnormal findings at the dissection were found; Toxicity findings (death, general conditions, body weight, dissection) ([2]; intraperitoneal administration, 300 mg, 10 mg, 1 mg or 0.1 mg per 1 kg body weight): no cases of death, changes in the general conditions, suppression of the increase in the body weight or abnormal findings at the dissection were found; Enhancement of NGF production (in words) ([3]; L-M cells): enhanced NGF production in the L-M cells in a concentration-dependent manner; Enhancement Ratio (%) ([3]; added amount 0.5 μM): 120%; Enhancement Ratio (%) ([3]; added amount 1 μM): 462%; Enhancement Ratio (%) ([3]; added amount 2 μM): 1107%; Enhancement Ratio (%) ([3]; added amount 5 μM): 2100%; Enhancement Ratio (%) ([3]; added amount 10 μM): 3686%; Enhancement Ratio (%) ([3]; added amount 20 μM): 3927%; Enhancement Ratio (%) ([3]; added amount 50 μM): 1743%; Content of NGF (pg/Sciatic Nerves) ([4]; 100 μg per 1 kg body weight intraperitoneally, consecutive days, streptozotocin diabetic rats, average ± standard error, N = 6, * significant at 5% vs control (119.2 ± 11.7)): 187.7 ± 26.4* pg/Sciatic Nerves; Content of NGF in the nerves vs control group (in words) ([4]; 100 μg per 1 kg intraperitoneally, diabetic rats): content of NGF in the nerves was increased; Cases of death [5]: no cases of death
